Assay results published in US12213485B2, “Synergistic methods of using benzoxaborole compounds and preservative gases as an antimicrobial for crops” (AGROFRESH INC., priority 2016, dated 2025).

Tests used:
[1] = tested on: Botrytis cinerea (BOTRCI) on table grapes; assay: In vivo disease severity on wound-inoculated table grapes, benzoxaborole and CO2 chamber treatment
Source text: (§1) The following experiments were used to determine synergy between benzoxaborole Compounds A, B, and/or C and preservative gases, such as carbon dioxide (CO2) and sulfur dioxide (SO2). Specific rates or any other unique conditions are noted within the corresponding results tables. Each experiment comprised an air-tight 36 liter (L) chamber (Fisher Scientific, P/N: 08-642-23C), fitted with a bulkhead septum port (Swagelok, P/N: SS-400-61, Solon, OH) used for treatment delivery, as well as for monitoring (using needle extraction) carbon dioxide (CO2), sulfur dioxide (SO2), oxygen (O2) or other headspace samples. A variable speed fan (Thermaltake, Mobile Fan II, P/N: A1888, Taipei City, Taiwan) set to low was also used to circulate the headspace atmosphere.
(§2) Similarly, table grape fruits were also tested in vivo. More specifically, 16-20 table grapes per repetition were washed and inoculated with pathogens (as described above for the strawberries). However, an ethanol-sterilized push pin, rather than a T15 screwdriver, was used to wound the stem-end of the grapes. The grapes were inoculated in the wound, and then arranged inside a 1-pint clamshell.
(§3) For treatment, the inoculated agar plates and clamshells containing fruits (e.g., strawberries and grapes) were placed inside a 36 L experimental chamber unit, which was then sealed prior to commencement of compound treatments. The chamber remained sealed throughout the duration of the experiment except for addition of treatment to the chamber, and post-treatment ventilation.
(§4) Benzoxaborole Compound A or Compound B was dissolved in acetone and dispensed onto a 60 mm Whatman #1 filter paper disk using a pipette. The acetone was permitted to evaporate for five minutes before the disk was placed on a watch glass in each chamber.
(§5) A 12% CO2 headspace treatment was then established in the chamber by permitting 10 grams (g) of crushed dry ice placed in a weigh boat in the chamber to evaporate in the sealed chamber. However, the bulkhead port of the chamber was loosened to permit the release of internal pressure. Optionally, a fan was used during the initial hours of treatment (i.e., up to about 6 hours of treatment) to ensure uniform treatment exposure of fruits and plates.
(§6) Untreated controls and CO2 treated chambers contained an acetone-treated disk with similar evaporation for five minutes. CO2 and O2 levels in the chamber were monitored using a handheld gas detector (Dansensor Checkpoint II; P/N 600111, Ringsted, Denmark). Temperature and relative humidity were also monitored within the chamber using data loggers (Onset HOBO; P/N U12-013, Bourne, MA).
(§7) The chamber for all in vitro and in vivo experiments was held at room temperature (i.e., from about 21° C. to about 23° C.) typically for about 3.5 days (i.e., about 84 hours) of treatment exposure. Chambers were then vented. After an additional 2-3 days with the chamber at room temperature, post-treatment radial growth (in mm) of each in vitro pathogen (see Examples 1-7, Tables 1-7) was measured on the inoculated plates using electronic calipers (Mitutoyo, P/N: CD-6-CX, Aurora, IL). In addition, the point of inoculation on fruits was assessed for indication of in vivo disease incidence (e.g., yes or no) and severity of disease incidence (see Examples 8-16, Tables 8-16). Disease severity was rated on a scale ranging from 0 to 4, where “0” indicated no disease severity, “1” indicated minimal disease severity, “2” indicated medium disease severity, “3” indicated high disease severity, and “4” indicated exceptionally high disease severity. […]

[2] = tested on: Penicillium expansum (PENIEX) on table grapes; assay: as above
Source text: as §1, §2, §3, §4, §5, §6, §7

[3] = tested on: Penicillium expansum (PENIEX); assay: In vitro fungal growth on inoculated agar plates, benzoxaborole and CO2 chamber treatment; type: cell-based
Source text: as §1
(§8) In vitro and in vivo experiments were performed concurrently in triple replicates (i.e., triplicate) unless otherwise noted. For in vitro experiments, a single 6-well microtiter plate or three, 10-cm petri plates each containing half strength Potato Dextrose Agar were prepared. Each well or plate was inoculated with 1 microliter (μL) of 1×10^5 spores/ml of the appropriate pathogenic spore suspension (e.g., Botrytis cinerea, BOTRCI; Penicillium expansum, PENIEX; Mucor piriformis, MUCOPI; Fusarium sambucinum FUSASA; or Aspergillus brasiliensis, ASPEBR). The inoculated microtiter or petri plates were then sealed with a breathable film (AeraSeal; P/N: B-100, Excel Scientific, Victorville, CA).
as §3, §4, §5, §6, §7

[4] = tested on: Mucor piriformis (MUCOPI); assay: as above; type: cell-based
Source text: as §1, §8, §3, §4, §5, §6, §7

[5] = tested on: Mucor piriformis (MUCOPI) on strawberries; assay: In vivo disease severity on wound-inoculated strawberries, benzoxaborole and CO2 chamber treatment
Source text: as §1
(§9) For in vivo experiments, eight strawberry fruits per repetition were surface sterilized with a 70% ethanol solution. After sterilization, the strawberries were rinsed twice with deionized water. Each strawberry fruit was wounded using a T15 screwdriver tip to a uniform depth of eight mm (8 mm). Each fruit wound was inoculated with 20 μL of 1×10^5 spores/ml pathogen spore suspension of B. cinerea or M. piriformis. The strawberries were then placed with the stem facing downwards inside a 1-pound strawberry clamshell.
as §3, §4, §5, §6, §7

[6] = tested on: Botrytis cinerea (BOTRCI) on strawberries; assay: as above
Source text: as §1, §9, §3, §4, §5, §6, §7

Compound: OB1OCc2cc(F)ccc21 [Compound A]
- Colby Calculation ([1]; Table 15, compound 0.035 mg/L + 12% CO2, Colby equation E=x+y−x*y/100): 115.2
- Growth (Severity, 0 to 4) Cmpd + 12% CO2 ([1]; Table 15, compound 0.035 mg/L + 12% CO2, evaluated 1 day after treatment, fan continuous): 0.7
- Growth (Severity, 0 to 4) Cmpd ([1]; Table 15, compound alone 0.035 mg/L, evaluated 1 day after treatment, fan continuous): 0.9
- Colby Calculation ([2]; Table 16, compound 0.035 mg/L + 12% CO2, Colby equation E=x+y−x*y/100): 108.2
- Growth (Severity, 0 to 4) Cmpd + 12% CO2 ([2]; Table 16, compound 0.035 mg/L + 12% CO2, evaluated 1 day after treatment, fan continuous): 1.3
- Growth (Severity, 0 to 4) Cmpd ([2]; Table 16, compound alone 0.035 mg/L, evaluated 1 day after treatment, fan continuous): 1.8
- Colby Calculation ([3]; Table 1, compound 0.14 mg/L + 12% CO2, Colby equation E=x+y−x*y/100): 225.0
- Growth (diameter, mm) Cmpd + 12% CO2 ([3]; Table 1, compound 0.14 mg/L + 12% CO2, evaluated 2 days after treatment completion, 6-well microtiter plate, 4 replicates, fan first 6 hours): 3.3 mm
- Growth (diameter, mm) Cmpd ([3]; Table 1, compound alone 0.14 mg/L, evaluated 2 days after treatment completion, 6-well microtiter plate, 4 replicates, fan first 6 hours): 17.0 mm
- Colby Calculation ([3]; Table 2, compound 0.14 mg/L + 12% CO2, Colby equation E=x+y−x*y/100): 119.7
- Growth (diameter, mm) Cmpd + 12% CO2 ([3]; Table 2, compound 0.14 mg/L + 12% CO2, evaluated 2 days after treatment, 6-well microtiter plate, fan first 6 hours, >90% R.H.): 5.2 mm
- Growth (diameter, mm) Cmpd ([3]; Table 2, compound alone 0.14 mg/L, evaluated 2 days after treatment, 6-well microtiter plate, fan first 6 hours, >90% R.H.): 9.7 mm
- Colby Calculation ([3]; Table 4, compound 0.14 mg/L + 12% CO2, Colby equation E=x+y−x*y/100): 124.4
- Growth (diameter, mm) Cmpd + 12% CO2 ([3]; Table 4, compound 0.14 mg/L + 12% CO2, evaluated 2 days after treatment completion, 6-well microtiter plate, fan first 6 hours): 0.5 mm
- Growth (diameter, mm) Cmpd ([3]; Table 4, compound alone 0.14 mg/L, evaluated 2 days after treatment completion, 6-well microtiter plate, fan first 6 hours): 6.4 mm
- Colby Calculation ([3]; Table 5, compound 0.14 mg/L + 12% CO2, Colby equation E=x+y−x*y/100): 102.5
- Growth (diameter, mm) Cmpd + 12% CO2 ([3]; Table 5, compound 0.14 mg/L + 12% CO2, evaluated 2 days after treatment, 6-well plate, fan first 6 hours, >90% R.H.): 8.6 mm
- Growth (diameter, mm) Cmpd ([3]; Table 5, compound alone 0.14 mg/L, evaluated 2 days after treatment, 6-well plate, fan first 6 hours, >90% R.H.): 10.2 mm
- Colby Calculation ([3]; Table 7, compound 0.035 mg/L + 12% CO2, Colby equation E=x+y−x*y/100): 114.7
- Growth (diameter, mm) Cmpd + 12% CO2 ([3]; Table 7, compound 0.035 mg/L + 12% CO2, evaluated 3 days after treatment, 10 cm Petri plates, fan continuous): 4.7 mm
- Growth (diameter, mm) Cmpd ([3]; Table 7, compound alone 0.035 mg/L, evaluated 3 days after treatment, 10 cm Petri plates, fan continuous): 10.6 mm
- Colby Calculation ([4]; Table 3, compound 0.14 mg/L + 12% CO2, Colby equation E=x+y−x*y/100): 189.0
- Growth (diameter, mm) Cmpd + 12% CO2 ([4]; Table 3, compound 0.14 mg/L + 12% CO2, evaluated 2 days after treatment, 6-well microtiter plate, fan first 6 hours, >90% R.H.): 11.0 mm
- Growth (diameter, mm) Cmpd ([4]; Table 3, compound alone 0.14 mg/L, evaluated 2 days after treatment, 6-well microtiter plate, fan first 6 hours, >90% R.H.): 22.3 mm
- Colby Calculation ([5]; Table 10, compound 0.14 mg/L + 12% CO2, Colby equation E=x+y−x*y/100): 106.8
- Growth (Severity, 0 to 4) Cmpd + 12% CO2 ([5]; Table 10, compound 0.14 mg/L + 12% CO2, evaluated 2 days after treatment, fan first 6 hours, >90% R.H.): 0.2
- Growth (Severity, 0 to 4) Cmpd ([5]; Table 10, compound alone 0.14 mg/L, evaluated 2 days after treatment, fan first 6 hours, >90% R.H.): 0.5
- Colby Calculation ([6]; Table 8, compound 0.14 mg/L + 12% CO2, Colby equation E=x+y−x*y/100): 176.2
- Growth (Severity, 0 to 4) Cmpd + 12% CO2 ([6]; Table 8, compound 0.14 mg/L + 12% CO2, evaluated 2 days after treatment, 4 replicates, fan first 6 hours, >90% R.H.): 0.4
- Growth (Severity, 0 to 4) Cmpd ([6]; Table 8, compound alone 0.14 mg/L, evaluated 2 days after treatment, 4 replicates, fan first 6 hours, >90% R.H.): 2.1
- Colby Calculation ([6]; Table 9, compound 0.14 mg/L + 12% CO2, Colby equation E=x+y−x*y/100): 107.6
- Growth (Severity, 0 to 4) Cmpd + 12% CO2 ([6]; Table 9, compound 0.14 mg/L + 12% CO2, evaluated 3 days after treatment, fan first 6 hours, >90% R.H.): 0.8
- Growth (Severity, 0 to 4) Cmpd ([6]; Table 9, compound alone 0.14 mg/L, evaluated 3 days after treatment, fan first 6 hours, >90% R.H.): 1.1
- Colby Calculation ([6]; Table 11, compound 0.14 mg/L + 12% CO2, Colby equation E=x+y−x*y/100): 109.0
- Growth (Severity, 0 to 4) Cmpd + 12% CO2 ([6]; Table 11, compound 0.14 mg/L + 12% CO2, evaluated 2 days after treatment, fan first 6 hours, >90% R.H.): 0.8
- Growth (Severity, 0 to 4) Cmpd ([6]; Table 11, compound alone 0.14 mg/L, evaluated 2 days after treatment, fan first 6 hours, >90% R.H.): 1.4
- Colby Calculation ([6]; Table 12, compound 0.14 mg/L + 12% CO2, Colby equation E=x+y−x*y/100): 107.9
- Growth (Severity, 0 to 4) Cmpd + 12% CO2 ([6]; Table 12, compound 0.14 mg/L + 12% CO2, evaluated 2 days after treatment, fan first 6 hours, >90% R.H.): 0.4
- Growth (Severity, 0 to 4) Cmpd ([6]; Table 12, compound alone 0.14 mg/L, evaluated 2 days after treatment, fan first 6 hours, >90% R.H.): 0.7
- Colby Calculation ([6]; Table 13, compound 0.14 mg/L + 12% CO2, Colby equation E=x+y−x*y/100): 163.4
- Growth (Severity, 0 to 4) Cmpd + 12% CO2 ([6]; Table 13, compound 0.14 mg/L + 12% CO2, evaluated 3 days after treatment, fan run continuously): 1.4
- Growth (Severity, 0 to 4) Cmpd ([6]; Table 13, compound alone 0.14 mg/L, evaluated 3 days after treatment, fan run continuously): 2.4
- Colby Calculation ([6]; Table 14, compound 0.0044 mg/L + 12% CO2, Colby equation E=x+y−x*y/100): 114.8
- Growth (Severity, 0 to 4) Cmpd + 12% CO2 ([6]; Table 14, compound 0.0044 mg/L + 12% CO2, evaluated 3 days after treatment, fan continuous): 3.2
- Colby Calculation ([6]; Table 14, compound 0.0088 mg/L + 12% CO2, Colby equation E=x+y−x*y/100): 502.5
- Growth (Severity, 0 to 4) Cmpd + 12% CO2 ([6]; Table 14, compound 0.0088 mg/L + 12% CO2, evaluated 3 days after treatment, fan continuous): 0.6
- Growth (Severity, 0 to 4) Cmpd ([6]; Table 14, compound alone 0.0044 mg/L, evaluated 3 days after treatment, fan continuous): 3.4
- Growth (Severity, 0 to 4) Cmpd ([6]; Table 14, compound alone 0.0088 mg/L, evaluated 3 days after treatment, fan continuous): 3.3
